# Data: paper PMC5974124, “Equilibrium Thermodynamics, Formation, and Dissociation Kinetics of Trivalent Iron and Gallium Complexes of Triazacyclononane-Triphosphinate (TRAP) Chelators: Unraveling the Foundations of Highly Selective Ga-68 Labeling” (Frontiers in Chemistry, 2018)
# Like-named read-outs stand apart in the source and are kept apart here. Marks after values point to notes of the source that are not given here.
# Tests used:
# [1] = parameters: method as in Brucher and Sherry, [1990]; details: 25°C, ref Brucher and Sherry, [1990]; cited from earlier work
# [2] = parameters: method as in Notni et al., [2010]; Baranyai et al., [2015]; details: Zn^II, ref Notni et al., [2010]; Baranyai et al., [2015]; cited from earlier work
# [3] = cited from earlier work; for log β3OH hydrolysis constant: M(OH)3, ref Baes and Mesmer; for log β3OH hydrolysis constant / log β2OH hydrolysis constant / log β1OH hydrolysis constant: [1976]; for log β2OH hydrolysis constant: [M(OH)2]^+; for log β1OH hydrolysis constant: [M(OH)]^2+
# [4] = 25°C, cited from earlier work
# [5] = Fe^III, 25°C, cited from earlier work
# [6] = Protonation constants of ligands by pH-potentiometry; type: physicochemical; details: 0.15 M NaNO3, 25°C
# Experimental: For determining the protonation constants of H6TRAP and H3NOTA ligands three parallel pH-potentiometric titration were made with 0.2 M NaOH in 0.002 M ligand solutions.
# For pH measurements and titrations, a Metrohm 785 DMP Titrino titration workstation and a Metrohm-6.0233.100 combined electrode were used. Equilibrium measurements were carried out at a constant ionic strength (0.15 M NaNO3 or NaCl) in 6 mL samples at 25°C. Solutions were stirred and continuously purged with N2. Titrations were performed in a pH range of 1.7–12.0. KH-phthalate (pH = 4.005) and borax (pH = 9.177) buffers were used to calibrate the pH meter. For calculation of [H^+] from measured pH values, the method proposed by Irving et al. was used (Irving et al., [1967]). A 0.01 M HNO3 or HCl solution was titrated with the standardized NaOH solution in the presence of 0.15 M NaNO3 or NaCl. Differences between the measured (pHread) and calculated pH (–log[H^+]) values were used to obtain the equilibrium H^+ concentration from the pH values, measured in the titration experiments. For equilibrium calculations, the stoichiometric water ionic product (pKw) is also needed to calculate [H^+] values in basic conditions. The VNaOH–pHread data pairs of the HNO3–NaOH or HCl–NaOH titration obtained in the pH range 10.5–12.0 have been used to calculate the pKw value (pKw = 13.84). For calculation of the equilibrium constants, the program PSEQUAD (Zekany and Nagypal, [1985]) was used. The standard deviation (SD) of the equilibrium parameters calculated by the program PSEQUAD is defined by Equation (1)
# Protonation equilibria of the TRAP^6−, NOTA^3− and Bha^− ligands were studied by pH-potentiometry. The protonation constants (log KiH ) of ligands defined by Equation (3) are listed in Table 1 (standard deviations are shown in parentheses). The charges of ligands and complexes will be indicated when it is necessary.
# (3) KiH=[HiL]/[Hi−1L][H^+] i=0,1,2…6
# [7] = Stability and protonation constants of Fe^III complexes (pH-potentiometry, spectrophotometry, competition with Bha^−); type: physicochemical; details: 0.15 M NaNO3, 25°C
# Experimental: Stability constant of [Fe(Bha)]^2+ complex was determined by spectrophotometry, studying the Fe^III-HBha systems at the absorption band of Fe^III-complex over the wavelength range of 400–800 nm in two sets of experiments. Individual samples were prepared in the first series in which the concentrations of Fe^III and HBha was constant 0.2 and 2.0 mM, while that of the H^+ was varied between […] (eight samples, Figure S1). The H^+ concentration in the samples was adjusted by addition of calculated amounts of 2.0 M HNO3. The ionic strength was constant in the samples with [H^+] < 0.15 M ([H^+]+[Na^+] = 0.15 M). Samples were kept at 25°C for a week. Absorbance values were determined at 11 wavelengths (400, 415, 430, 445, 460, 475, 490, 505, 520, 535, and 550 nm). In the second set, spectrophotometric titrations were done with samples containing HBha ligand in 2.0 mM concentration, whereas the concentration of Fe^III was varied between 0.1–0.3 mM (Figures S2–S4). The pH of the samples was adjusted using concentrated NaOH and HNO3 solutions in the pH range 1.7–11.0 (0.15 M NaNO3 and 25°C). For calculation of the equilibrium constants, the best fit of the absorbance–pH data was obtained by assuming formation of [Fe(Bha)]^2+, [Fe(Bha)2]^+, [Fe(Bha)3], and [Fe(Bha)2(OH)2]^− species (Figure S5). The molar absorptivity of [Fe(Bha)]^2+, [Fe(Bha)2]^+, [Fe(Bha)3] and [Fe(Bha)2(OH)2]^− species were also determined at the same 11 wavelengths in these experiments (Figure S6).
# The stability constant of the [Fe(TRAP)]^3− complex has been determined by spectrophotometry, using competition reactions between HTRAP^5− and Bha^− for Fe^III at pH = 10.0. Concentration of [Fe(TRAP)]^3− was 0.2 mM, while that of HBha was varied between 0.0 and 1.5 mM (6 samples). The samples were kept at 25°C for 2 weeks. Absorbance values of the Fe^III-HTRAP^5−-Bha^− systems were determined at 11 wavelengths (400, 415, 430, 445, 460, 475, 490, 505, 520, 535, and 550 nm). The molar absorptivities of [Fe(TRAP)]^3− and [Fe(TRAP)OH]^4− in equilibrium solutions were determined by recording the absorption spectra of 0.1, 0.2, and 0.3 mM solution of [Fe(TRAP)]^3− in the pH range 6.0–12.0. The molar absorptivity of [Fe(Bha)2(OH)2]^− species was determined in the separate experiments. Absorbance and pH values were determined in the samples after equilibration (the time needed to reach the equilibria was determined by spectrophotometry). Spectrophotometric measurements were done using 1.0 cm cells with a Cary 1E spectrophotometer at 25°C. Protonation constants of the Fe^III complex formed with TRAP^6− were determined by direct pH-potentiometric titration at 1:1 metal to ligand ratios (both concentrations were 0.002 M). For calculation of the logKMHiL values, the mL base–pH data used were measured in the pH range 1.7 −12.0.
# For pH measurements and titrations, a Metrohm 785 DMP Titrino titration workstation and a Metrohm-6.0233.100 combined electrode were used. Equilibrium measurements were carried out at a constant ionic strength (0.15 M NaNO3 or NaCl) in 6 mL samples at 25°C. Solutions were stirred and continuously purged with N2. Titrations were performed in a pH range of 1.7–12.0. […] For calculation of [H^+] from measured pH values, the method proposed by Irving et al. was used (Irving et al., [1967]). […] Differences between the measured (pHread) and calculated pH (–log[H^+]) values were used to obtain the equilibrium H^+ concentration from the pH values, measured in the titration experiments. […]
# [8] = 25°C, cited from earlier work; remark: listed apart in the source
# [9] = ref Baes and Mesmer, listed as Fe^3+
# [10] = 0.2 M KCl, ref Farkas et al., [1998]
# [11] = 0.1 M KCl, ref Clarke and Martell, [1991]
# [12] = Ga^III, 0.1 M Me4NCl, ref Simecek et al., [2012]
# [13] = 0.1 M Me4NCl, ref Drahos et al., [2011]
# [14] = 0.15 M NaCl, ref Baranyai et al., [2015]
structure (smiles),measurement,setting,value
O=C([O-])CN1CCN(CC(=O)[O-])CCN(CC(=O)[O-])CC1.[Ce+3] [[Ce(NOTA)]],kOH formation rate constant,[1],6.3e+07 M⁻¹ s⁻¹
O=C([O-])CCP(=O)(O)CN1CCN(CP(=O)(O)CCC(=O)[O-])CCN(CP(=O)(O)CCC(=O)O)CC1.[Zn+2] [[Zn(TRAP)]^4−],logKML stability constant,[2],16.07
[Ga+3] [Ga^III],log β3OH hydrolysis constant,[3],−8.2
same,log β2OH hydrolysis constant,[3]; ref Baes and Mesmer,−5.92
same,log β1OH hydrolysis constant,[3]; ref Baes and Mesmer,−2.97
[Fe+3] [Fe^III],log β3OH hydrolysis constant,[3],−12.0
same,log β3OH hydrolysis constant,[3]; listed as Fe^3+,–12.0
same,logβ4^OH hydrolysis constant,"[3]; [Fe(OH)4]^-, ref Baes and Mesmer, 1976",–21.6
same,log β2OH hydrolysis constant,[3]; ref Baes and Mesmer,−5.67
same,log β2OH hydrolysis constant,[3]; [9],–5.67
same,log β1OH hydrolysis constant,[3]; ref Baes and Mesmer,−2.19
same,log β1OH hydrolysis constant,[3]; [9],–2.19
O=C([O-])CN(CCN(CC(=O)[O-])Cc1ccccc1[O-])Cc1ccccc1[O-].[Ga+3] [[Ga(HBED)]^−],logKGa(HBED) stability constant,"[4]; 0.1 M KCl, ref Ma et al., [1994]",38.51
"O=C(NO)c1ccccc1 [Bha^−, benzhydroxamic acid]",logK ML2,[5]; [10],10.12
same,logK ML3,[5]; [10],7.60
same,logK ML stability constant,[5]; [10],11.08
same,log K1H protonation constant,[6],8.53(3)
same,logK ML2,[7],9.03(2)
same,logK ML3,[7],7.41(3)
same,logK ML stability constant,[7],10.80(2)
same,logβFeL2(OH)2,[7],6.68(5)
same,log K1H protonation constant,[8]; [10],8.69
"O=C(O)CN1CCN(CC(=O)O)CCN(CC(=O)O)CC1 [NOTA^3−, 1,4,7-triazacyclononane-1,4,7-triacetic acid]",logK ML stability constant,[5]; [11],28.3
same,log K1H protonation constant,[6],11.94(2)
same,log K2H protonation constant,[6],5.71(3)
same,log K3H protonation constant,[6],3.14(3)
same,log K4H protonation constant,[6],1.60(2)
same,Σlog KiH total ligand basicity,"[6]; for TRAP^6− log K3H, K4H, K5H not considered",22.39
same,logK M(L)OH,[7],9.12(4)^e
same,logK M(L)OH,[4]; [12],9.83
same,logK MHL protonation constant of complex,[4]; [12],0.9
same,logK ML stability constant,[4]; [12],29.60
same,log K1H protonation constant,[8]; [11],11.98
same,log K2H protonation constant,[8]; [11],5.65
same,log K3H protonation constant,[8]; [11],3.18
same,log K1H protonation constant,[8]; [13],13.17
same,log K2H protonation constant,[8]; [13],5.74
same,log K3H protonation constant,[8]; [13],3.22
same,log K4H protonation constant,[8]; [13],1.96
same,Σlog KiH total ligand basicity,[8]; [13],24.09
same,log K1H protonation constant,[8]; [14],12.16
same,log K2H protonation constant,[8]; [14],5.75
same,log K3H protonation constant,[8]; [14],3.18
same,log K4H protonation constant,[8]; [14],1.90
same,Σlog KiH total ligand basicity,"[8]; 0.15 M NaCl, for TRAP^6− log K3H, K4H, K5H not considered, ref Baranyai et al., [2015]",22.99
O=C([O-])CN1CCN(CC(=O)[O-])CCN(CC(=O)[O-])CC1.[Gd+3] [[Gd(NOTA)]],kOH formation rate constant,[1],7.1e+07 M⁻¹ s⁻¹
O=C([O-])CN1CCN(CC(=O)[O-])CCN(CC(=O)[O-])CC1.[Er+3] [[Er(NOTA)]],kOH formation rate constant,[1],5.5e+07 M⁻¹ s⁻¹
